Reference: BindingDB's records for doi:10.1016/j.ejmech.2017.02.022 (Svkm'S Dr. Bhanuben Nanavati College of Pharmacy, 2017)

assay: Inhibition of ABCB1 in human MCF7/ADR cells assessed as potentiation of vinblastine-induced cytotoxicity by measuring vinblastine IC50 at IC10 after 7 days by SRB assay

Row | Structure (SMILES) | IC50
1 | CCN(CC)CCCn1c2ccccc2c(=O)c2cc(C)cc(C)c21 | 14 nM
2 | Cc1cc(C)c2c(c1)c(=O)c1ccccc1n2CCCN(CCO)CCO | 11 nM
3 | Cc1cc(C)c2c(c1)c(=O)c1ccccc1n2CCCCN1CCOCC1 | 4 nM
4 | Cc1cc(C)c2c(c1)c(=O)c1ccccc1n2CCCCN1CCCCC1 | 5 nM
5 | CCN(CC)CCCCn1c2ccccc2c(=O)c2cc(C)cc(C)c21 | 4.1 nM
6 | Cc1cc(C)c2c(c1)c(=O)c1ccccc1n2CCCCN(CCO)CCO | 3.1 nM
7 | Cc1cc(C)c2c(c1)c(=O)c1ccccc1n2CCCCN1CCN(CCO)CC1 | 1.3 nM
8 | Cc1cc(C)c2[nH]c3ccccc3c(=O)c2c1 | 27 nM
9 | Cc1cc(C)c2c(c1)c(=O)c1ccccc1n2CCCN1CCOCC1 | 20 nM
10 | Cc1cc(C)c2c(c1)c(=O)c1ccccc1n2CCCN1CCN(C)CC1 | 17 nM
11 | Cc1cc(C)c2c(c1)c(=O)c1ccccc1n2CCCN1CCCCC1 | 17 nM
12 | Cc1cc(C)c2c(c1)c(=O)c1ccccc1n2CCCN1CCN(CCO)CC1 | 8 nM
13 | Cc1cc(C)c2c(c1)c(=O)c1ccccc1n2CCCCN1CCN(C)CC1 | 10 nM
